Read-outs that look alike come from different tables or passages of the source.
Columns and labels:
[1] = biological target: T1, monophenolase activity of mushroom tyrosinase (Agaricus bisporus, UniProt C7FF04); test: Monophenolase inhibition assay (L-tyrosine substrate, dopachrome absorbance at 475 nm); conditions: pH 6.8, read-out: Inhibition (%) on monophenolase activity
Description: L-Tyrosine and L-DOPA were used as reaction substrate for monophenolase and diphenolase assays, respectively. […] Finally, 20 units of enzyme was quickly added to the reaction mixture and incubated at 30 °C for 10 min. […] The assay was carried out in triplicate and DMSO was used as control[17].

[2] = Copper(II) stability constants determination and pCu2+; type: physicochemical
Description: (§1) An automated titration system used in the study consists of a Metrohm 765 Dosimat autoburette, a Mettler Toledo MP230 pH metre with SENTEK pH electrode (P11), and an HP 8453 UV-visible spectrophotometer with a Hellem quartz flow cuvette being circulated through by a Gilson Mini-plus #3 pump—speed capability (20 ml/min). A potassium chloride electrolyte solution (0.1 M) was used to maintain the ionic strength. The temperature of the test solutions was maintained in a thermostatic jacketed titration vessel at 25 °C (± 0.1 °C) using a Fisherbrand Isotemp water bath. The pH electrodes were calibrated using GLEE[25] with data obtained by titrating a volumetric standard HCl (0.1 M) in KCl (0.1 M) with KOH (0.1 M) under an argon gas atmosphere in the vessel. The solution under investigation was stirred vigorously during the experiment. […] All instruments were interfaced to a computer and controlled by an in-house programme. An automated titration adopted the following strategy: the pH of a solution was increased by 0.1 pH unit by the addition of KOH solution (0.1 M) from the autoburette. The pH readings were judged to be stable if their values varied by less than 0.01 pH unit after a set incubation period. […] The cycle was repeated until the defined end point pH value was achieved. Titrations were carried out in the solution with molar ratio of DMSO: H2O being 0.2: 1 due to the solubility issue of samples and/or the corresponding copper(II) complexes. Under this condition, the pH metre readings are shifted, compared to the aqueous solution. All the titration data were analysed with the HypSpec2014 programme (http://www.hyperquad.co.uk/)[26]^,[27]. The speciation plot and pM values were calculated with the HYSS programme. Based on deferiprone titrations, pCu^2+ at pH 7.6, denoted as pCu^2+7.6, with [ligand]total = 10 µM and [Metal]total = 1 µM, were calculated as close approximations for pCu^2+ at pH 7.4 in the aqueous solution. Analytical grade reagent materials were used in the preparation of all solutions.

[3] = pKa determination by spectrophotometric titration; type: physicochemical; conditions: DMSO/water solution (molar ratio 0.2:1) with 0.1 M KCl, 25 °C
Description: as §1

[4] = parameters: method as in PMID 26239546; conditions: literature value for kojic acid; cited from earlier work
mushroom tyrosinase = test: Reversibility of inhibitory effect on tyrosinase (L-DOPA substrate); type: biochemical; conditions: inhibitor 0-25 µM, 30 °C, pH 6.8
Excerpt: Measurement method was substantially the same to that described above, changing the added concentration of the enzyme solution, different concentrations of inhibitor on mushroom tyrosinase L-DOPA as reaction substrate.

[5] = biological target: T1, monophenolase activity of mushroom tyrosinase; parameters: method as in PMID 15231412; conditions: at 50 μM, literature value; cited from earlier work
[6] = 25 °C, 0.1 M KCl, DMSO:H2O molar ratio 0.2:1

T1 sequence (G1K3P4 entry or part of it): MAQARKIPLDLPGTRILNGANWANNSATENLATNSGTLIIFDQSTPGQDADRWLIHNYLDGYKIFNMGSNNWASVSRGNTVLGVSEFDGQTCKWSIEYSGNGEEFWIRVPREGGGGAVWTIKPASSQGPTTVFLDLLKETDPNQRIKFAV
T1 sequence (C7FF04 1-392): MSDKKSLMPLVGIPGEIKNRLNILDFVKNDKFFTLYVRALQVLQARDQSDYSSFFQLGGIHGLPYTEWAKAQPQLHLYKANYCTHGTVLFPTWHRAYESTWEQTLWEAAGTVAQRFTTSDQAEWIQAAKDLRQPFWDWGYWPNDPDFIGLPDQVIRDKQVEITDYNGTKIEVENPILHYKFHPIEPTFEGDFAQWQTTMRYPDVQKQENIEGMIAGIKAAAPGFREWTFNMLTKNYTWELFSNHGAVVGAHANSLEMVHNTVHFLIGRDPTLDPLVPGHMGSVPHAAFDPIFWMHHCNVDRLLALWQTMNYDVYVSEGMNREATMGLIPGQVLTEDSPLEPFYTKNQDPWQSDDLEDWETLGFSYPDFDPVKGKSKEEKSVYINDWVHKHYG

For `COc1ccc(C(=O)/C=C/c2cc(=O)c(O)co2)c(OC)c1` [Compound 1c], the inhibition at 50 µM [1] was 50.3%.
`O=C(/C=C/c1cc(=O)c(O)c[nH]1)c1ccccc1` [Compound 1m] showed an inhibition at 50 µM [1] of 66.7%.
For `COc1ccc(C(=O)/C=C/c2cc(=O)c(O)c[nH]2)cc1OC` [Compound 1n], the “log β1 (log stability constant of copper complex CuLH)” value [2, 6] was 20.9, the “log β2 (log stability constant of copper complex CuL2H2)” value [2, 6] was 40.4 and the “pCu2+” value ([2]; [Cu]total=10^-6 M, [L]total=10^-5 M, pH 7.4, calculated from pKa and log stability constants with HYSS) was 9.9. For the same compound, the pKa ([3]; DMSO:H2O molar ratio 0.2:1, read-out: pKa (1-NH)) was 12, the pKa ([3]; DMSO:H2O molar ratio 0.2:1, read-out: pKa (4-oxo functional group)) was 3.3 and the pKa ([3]; DMSO:H2O molar ratio 0.2:1, read-out: pKa (5-hydroxyl group)) was 8.8. For the same compound, the inhibition at 50 µM [1] was 87.6%.
For `COc1ccc(C(=O)/C=C/c2cc(=O)c(O)c[nH]2)c(O)c1` [Compound 1o], the inhibition at 50 µM [1] was 63.3%.
In the case of `O=c1cc(CO)occ1O` [Kojic acid], the “pCu2+” value [4] is given as 7.3.
With `CCCCn1cc(O)c(=O)cc1/C=C/C(=O)c1ccc(O)c(O)c1` [Compound 1j] the inhibition at 50 µM [1] was 69.4%.
In the case of `CCn1cc(O)c(=O)cc1/C=C/C(=O)c1ccc(O)c(O)c1` [Compound 1f], the inhibition at 50 µM [1] is reported as 78.8%.
For `Cn1cc(O)c(=O)cc1/C=C/C(=O)c1ccc(F)cc1` [Compound 1a], the “Reversibility of inhibition on diphenolase activity of tyrosinase” value (mushroom tyrosinase) was “reversible” and the inhibition at 50 µM [1] was 85.3%.
Compound `CCCCn1cc(O)c(=O)cc1/C=C/C(=O)c1ccc(OC)cc1O` [Compound 1k] has an inhibition at 50 µM [1] of 64.6%.
For `COc1ccc(C(=O)/C=C/c2cc(=O)c(O)cn2C)c(O)c1` [Compound 1b], the inhibition at 50 µM [1] was 66.7%.
For `CCn1cc(O)c(=O)cc1/C=C/C(=O)c1ccc(OC)cc1O` [Compound 1g], the inhibition at 50 µM [1] was 71.4%.
With `CCn1cc(O)c(=O)cc1/C=C/C(=O)c1ccc(F)cc1` [Compound 1h] the inhibition at 50 µM [1] was 57.8%.
With `CCn1cc(O)c(=O)cc1/C=C/C(=O)c1ccccc1` [Compound 1e] the inhibition at 50 µM [1] was 63.3%.
Work on `Cn1cc(O)c(=O)cc1/C=C/C(=O)c1ccccc1` [Compound 1i] yielded an inhibition at 50 µM [1] of 72.8%.
`CCCCn1cc(O)c(=O)cc1/C=C/C(=O)c1ccc(F)cc1` [Compound 1l] showed an inhibition at 50 µM [1] of 50.3%.
In the case of `O=C(/C=C/c1ccc(O)cc1)c1ccc(O)cc1O` [2′,4′,4-trihydroxychalcone], the Inhibition rate [5] is listed as 67%.
For `O=C(/C=C/c1cc(=O)c(O)c[nH]1)c1ccc(F)cc1` [Compound 1d], the “Reversibility of inhibition on diphenolase activity of tyrosinase” value (mushroom tyrosinase) was “reversible” and the inhibition at 50 µM [1] was 89.5%.

Source: paper PMC7470021, “Functionality study of chalcone-hydroxypyridinone hybrids as tyrosinase inhibitors and influence on anti-tyrosinase activity” (Journal of Enzyme Inhibition and Medicinal Chemistry, 2020)
